Values of other authors in patent US20230285429A1, “CANNABINOID ACID FORMULATIONS, DELIVERY SYSTEMS, AND METHODS OF USE” (Flora Growth U.S. Holdings Corp., priority 2022, published 2023).

What was measured:
[1] = fatty acids, intestinal lymph
[2] = molecular target: spike protein of SARS-CoV-2 (Severe acute respiratory syndrome coronavirus 2, UniProt P0DTC2)

Row | SMILES | percentage transported to the lymph system [1] [%] | affinity for the spike protein [2]
1 | CCCCCCCCCC(=O)O [decanoic] | 13 | 
2 | C=C(C)[C@@H]1CCC(C)=C[C@H]1c1c(O)cc(CCCCC)c(C(=O)O)c1O [CBDA, cannabidiolic acid] |  | high affinity
3 | CCCCCCCCCCCC(=O)O [lauric] | 28 | 
4 | CCCCCc1cc(O)c(C/C=C(\C)CCC=C(C)C)c(O)c1C(=O)O [CBGA, cannabigerolic acid] |  | high affinity
5 | CCCCC/C=C\C/C=C\CCCCCCCC(=O)O [linoleic] | 32 | 
